Data from patent publication US12344610B2, “APOL1 inhibitors and methods of use” (Maze Therapeutics, Inc., priority 2022, dated 2025).

What follows are molecules tested against T1, APOL1 G2 (Homo sapiens, UniProt O14791, DEL388-389) (assay: APOL1-mediated calcium transport (calcium influx) assay, HEK T-REx/GCaMP6f/APOL1 G2 K6.3 cells, FLIPR TETRA). Details: prevention of calcium influx; geometric mean of at least 2 assay runs; † = average of a technical replicate from a single assay run.
T1 construct: expressed in transfected cells; host or cells: HEK293 T-REx clonal line stably expressing GCaMP6f (HEK T-REx/GCaMP6f/APOL1 G2 K6.3), doxycycline induced
T1 sequence (O14791 with tags, fused parts or gaps DEL388-389): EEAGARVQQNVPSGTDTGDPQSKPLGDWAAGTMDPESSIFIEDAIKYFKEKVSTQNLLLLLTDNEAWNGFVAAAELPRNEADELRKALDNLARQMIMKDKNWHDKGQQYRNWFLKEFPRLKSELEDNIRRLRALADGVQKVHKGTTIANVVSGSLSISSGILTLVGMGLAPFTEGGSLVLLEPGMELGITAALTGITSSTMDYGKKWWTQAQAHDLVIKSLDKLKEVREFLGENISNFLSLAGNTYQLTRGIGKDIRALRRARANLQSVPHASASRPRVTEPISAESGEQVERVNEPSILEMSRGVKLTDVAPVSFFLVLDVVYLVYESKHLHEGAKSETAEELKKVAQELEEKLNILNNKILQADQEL
Format: cell-based
Method in brief: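 A HEK293 T-REx clone stably expressing GCaMP6f had APOL1 G2 induced with doxycycline (20 ng/mL solution added) for 6 h. Cells were then washed into Ca2+-free Tyrode's buffer (pH 7.4) and preincubated with compounds (duplicate 8-point) for 10 min at room temperature. Ca2+ injection to 5 mM final produced FLIPR GCaMP fluorescence, giving AC50 for influx inhibition (geometric mean, ≥2 runs).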

| SMILES | AC50 [nM] |
| --- | --- |
| CC(COc1ccc2c(c1)CCC(=O)N2C)N1CCC2(CC1)C(=O)Nc1ccc(Cl)cc12 (single isomer, unassigned) [Compound 200] | 1200 |
| CC(COc1ccc2c(c1)CCC(=O)N2C)N1CCC2(CC1)C(=O)Nc1ccc(C#N)cc12 (single isomer, unassigned) [Compound 203, (S) or (R)-1′-{1-[(1-methyl-2-oxo-1,2,3,4-tetrahydroquinolin-6-yl)oxy]propan-2-yl}-2-oxo-1,2-dihydrospiro[indole-3,4′-piperidine]-5-carbonitrile] | 1190 |
| C[C@@H](COc1ccc(S(C)(=O)=O)c(C(F)F)c1)N1CCC2(CC1)C(=O)Nc1ccc(Cl)cc12 (single isomer, unassigned) [Compound 210] | 1540 |
| C[C@@H](COc1ccc2c(cnn2C)c1)N1CCC2(CC1)C(=O)Nc1ccc(Cl)cc12 (single isomer, unassigned) [Compound 211] | 1290 |
| C[C@@H](COc1ccc(S(C)(=O)=O)c(C(F)F)c1)N1CCC2(CC1)C(=O)Nc1ccc(C#N)cc12 (single isomer, unassigned) [Compound 212] | 1360 |
| CS(=O)(=O)c1ccc(OCCN2CCC3(CC2)C(=O)Nc2ccc(Cl)cc23)cc1C(F)CF (single isomer, unassigned) [Compound 218, 5-chloro-1′-(2-{3-[(1S or 1R)-1,2-difluoroethyl]-4-methanesulfonylphenoxy}ethyl)-1,2-dihydrospiro[indole-3,4′-piperidin]-2-one] | 690 |
| CS(=O)(=O)c1ccc(OCCN2CCC3(CC2)C(=O)Nc2ccc(Cl)cc23)cc1C(F)CF (single isomer, unassigned) [Compound 219, 5-chloro-1′-(2-{3-[(1R or 1S)-1,2-difluoroethyl]-4-methanesulfonylphenoxy}ethyl)-1,2-dihydrospiro[indole-3,4′-piperidin]-2-one] | 835 |
| CS(=O)(=O)c1ccc(OCCN2CCC3(CC2)C(=O)Nc2ccc(C#N)cc23)cc1C(F)CF (single isomer, unassigned) [Compound 221, 1′-(2-{3-[(1S or 1R)-1,2-difluoroethyl]-4-methanesulfonyl-phenoxy}ethyl)-2-oxo-1,2-dihydrospiro [indole-3,4′-piperidine]-5-carbonitrile] | 598 |
| CC(COc1ccc(C2(S(C)(=O)=O)COC2)cc1)N1CCC2(CC1)C(=O)Nc1ccc(C#N)cc12 (single isomer, unassigned) [Compound 263, (S) or (R)-1′-{1-[4-(3-methanesulfonyloxetan-3-yl)phenoxy]propan-2-yl}-2-oxo-1,2-dihydrospiro[indole-3,4′-piperidine]-5-carbonitrile] | 2540 |
| CN1C(=O)C2(CCN(CCOc3ccc(C4(S(C)(=O)=O)CC(O)C4)cc3)CC2)c2cc(C(F)F)ccc21 (single isomer, unassigned) [Compound 278, 5-(difluoromethyl)-1-methyl-1′-(2-{4-[(cis) or (trans)-3-hydroxy-1-methanesulfonylcyclobutyl]phenoxy}ethyl)-1,2-dihydrospiro[indole-3,4′-piperidin]-2-one] | 769 |
| CS(=O)(=O)C1(c2ccc(OCCN3CCC4(CC3)C(=O)Nc3ccc(C(F)F)cc34)cc2)CC(O)C1 (single isomer, unassigned) [Compound 281, 5-(difluoromethyl)-1′-(2-{4-[(cis) or (trans)-3-hydroxy-1-methanesulfonylcyclobutyl]phenoxy}ethyl)-1,2-dihydrospiro[indole-3,4′-piperidin]-2-one] | 1310 |
| CC(O)c1ncc(OCCN2CCC3(CC2)C(=O)Nc2ccc(Cl)cc23)cn1 (single isomer, unassigned) [Compound 285, 5-chloro-1′-[2-({2-[(1S) or (1R)-1-hydroxyethyl]pyrimidin-5-yl}oxy)ethyl]-1,2-dihydrospiro[indole-3,4′-piperidin]-2-one] | 714 |
| CC(O)c1ncc(OCCN2CCC3(CC2)C(=O)Nc2ccc(Cl)cc23)cn1 (single isomer, unassigned) [Compound 286, 5-chloro-1′-[2-({2-[(1R) or (1S)-1-hydroxyethyl]pyrimidin-5-yl}oxy)ethyl]-1,2-dihydrospiro[indole-3,4′-piperidin]-2-one] | 917 |
| CC(O)c1ncc(OCCN2CCC3(CC2)C(=O)Nc2ccc(C(F)F)cc23)cc1C(F)(F)F (single isomer, unassigned) [Compound 287, 5-(difluoromethyl)-1′-[2-({6-[(1S) or (1R)-1-hydroxyethyl]-5-(trifluoromethyl)pyridin-3-yl}oxy)ethyl]-1,2-dihydrospiro[indole-3,4′-piperidin]-2-one] | 303 |
| CC(O)c1ncc(OCCN2CCC3(CC2)C(=O)Nc2ccc(C(F)F)cc23)cc1C(F)(F)F (single isomer, unassigned) [Compound 288, 5-(difluoromethyl)-1′-[2-({6-[(1R) or (1S)-1-hydroxyethyl]-5-(trifluoromethyl)pyridin-3-yl}oxy)ethyl]-1,2-dihydrospiro[indole-3,4′-piperidin]-2-one] | 369 |
| CC[C@]1(O)C[C@H](N2C(=O)CCc3cc(OCCN4CCC5(CC4)C(=O)Nc4ccc(Cl)cc45)cnc32)C1 (single isomer, unassigned) [Compound 290, 5-chloro-1′-[2-({7-oxo-8-[(trans)-3-ethyl-3-hydroxycyclobutyl]-5,6,7,8-tetrahydro-1,8-naphthyridin-3-yl}oxy)ethyl]-1,2-dihydrospiro[indole-3,4′-piperidin]-2-one] | 253 |
| CC(O)c1ncc(OCCN2CCC3(CC2)C(=O)Nc2ccc(Cl)cc23)cc1C(F)(F)F (single isomer, unassigned) [Compound 291, 5-chloro-1′-[2-({6-[(1R) or (1S)-1-hydroxyethyl]-5-(trifluoromethyl)pyridin-3-yl}oxy)ethyl]-1,2-dihydrospiro[indole-3,4′-piperidin]-2-one] | 1190 |
| CC(O)c1ncc(OCCN2CCC3(CC2)C(=O)Nc2ccc(Cl)cc23)cc1C(F)(F)F (single isomer, unassigned) [Compound 292, 5-chloro-1′-[2-({6-[(1S) or (1R)-1-hydroxyethyl]-5-(trifluoromethyl)pyridin-3-yl}oxy)ethyl]-1,2-dihydrospiro[indole-3,4′-piperidin]-2-one] | 1300 |
| O=C1CCc2cc(OCCN3CCC4(CC3)C(=O)Nc3ccc(Cl)cc34)cnc2N1[C@H]1C[C@@](O)(C2CC2)C1 (single isomer, unassigned) [Compound 297, 5-chloro-1′-[2-({7-oxo-8-[(trans)-3-cyclopropyl-3-hydroxycyclobutyl]-5,6,7,8-tetrahydro-1,8-naphthyridin-3-yl}oxy)ethyl]-1,2-dihydrospiro[indole-3,4′-piperidin]-2-one] | 937 |
| C[C@]1(O)C[C@H](N2C(=O)CCc3cc(OCCN4CCC5(CC4)C(=O)Nc4ccc(Cl)cc45)cnc32)C1 (single isomer, unassigned) [Compound 307, 5-chloro-1′-[2-({7-oxo-8-[(trans)-3-hydroxy-3-methylcyclobutyl]-5,6,7,8-tetrahydro-1,8-naphthyridin-3-yl}oxy)ethyl]-1,2-dihydrospiro[indole-3,4′-piperidin]-2-one] | 320 |
| CS(=O)(=O)c1ccc(OCCN2CCC3(CC2)C(=O)N(CCO)c2ccc(Cl)cc23)cc1 [Compound 18, 5-chloro-1-(2-hydroxyethyl)-1′-[2-(4-methanesulfonylphenoxy)ethyl]-1,2-dihydrospiro[indole-3,4′-piperidin]-2-one] | 240 |
| COCCN1C(=O)C2(CCN(CCOc3ccc(S(C)(=O)=O)cc3)CC2)c2cc(Cl)ccc21 [Compound 20, 5-chloro-1′-[2-(4-methanesulfonylphenoxy)ethyl]-1-(2-methoxyethyl)-1,2-dihydrospiro[indole-3,4′-piperidin]-2-one] | 348 |
| CN1C(=O)C2(CCN(CCOc3ccc(S(=O)(=O)CCCS(C)(=O)=O)cc3)CC2)c2cc(Cl)ccc21 [Compound 23, 5-chloro-1′-{2-[4-(3-methanesulfonylpropanesulfonyl)phenoxy]ethyl}-1-methyl-1,2-dihydrospiro[indole-3,4′-piperidin]-2-one] | 514 |
| CS(=O)(=O)c1ccc(OCCN2CCC3(CC2)C(=O)N(CCO)c2ccc(Br)cc23)cc1 [Compound 24, 5-bromo-1-(2-hydroxyethyl)-1′-[2-(4-methanesulfonylphenoxy)ethyl]-1,2-dihydrospiro[indole-3,4′-piperidin]-2-one] | 200 |
| COCCN1C(=O)C2(CCN(CCOc3ccc(S(C)(=O)=O)cc3)CC2)c2cc(C#N)ccc21 [Compound 25, 1′-[2-(4-methanesulfonylphenoxy)ethyl]-1-(2-methoxyethyl)-2-oxo-1,2-dihydrospiro[indole-3,4′-piperidine]-5-carbonitrile] | 651 |
| CS(=O)(=O)c1ccc(OCCN2CCCC3(CC2)C(=O)Nc2ccccc23)cc1 (stereo not drawn) [Compound 26, 1-(2-(4-(methylsulfonyl)phenoxy)ethyl)spiro[azepane-4,3′-indolin]-2′-one] | 943 |
| CN1C(=O)CCc2cc(OCCN3CCC4(CC3)C(=O)Nc3ccc(Cl)cc34)ccc21 [Compound 27, 5-chloro-1′-[2-[(1-methyl-2-oxo-3,4-dihydroquinolin-6-yl)oxy]ethyl]spiro[indoline-3,4′-piperidine]-2-one] | 510 |
